The results in this text go back to patent US4745191A, “1-((A-substituted phenyl-ω-substituted piperazinyl)alkenyl) cyclohexanol” (American Home Products Corporation, priority 1987, dated 1988).

What is called inhibition is the drop in the measured response relative to a control, in per cent. What is called IC50 is the concentration that inhibits the measured activity by half. Usually Ki stands for a dissociation constant, usually derived from enzyme kinetics or from competition with a known ligand.

Like-named read-outs stand apart in the source and are kept apart here.

The target in one test is T1, 5-HT1A receptor (Rattus norvegicus, UniProt P19327).
T1 construct: from tissue; host or cells: rat hippocampal tissue
T1 sequence (P19327 1-422): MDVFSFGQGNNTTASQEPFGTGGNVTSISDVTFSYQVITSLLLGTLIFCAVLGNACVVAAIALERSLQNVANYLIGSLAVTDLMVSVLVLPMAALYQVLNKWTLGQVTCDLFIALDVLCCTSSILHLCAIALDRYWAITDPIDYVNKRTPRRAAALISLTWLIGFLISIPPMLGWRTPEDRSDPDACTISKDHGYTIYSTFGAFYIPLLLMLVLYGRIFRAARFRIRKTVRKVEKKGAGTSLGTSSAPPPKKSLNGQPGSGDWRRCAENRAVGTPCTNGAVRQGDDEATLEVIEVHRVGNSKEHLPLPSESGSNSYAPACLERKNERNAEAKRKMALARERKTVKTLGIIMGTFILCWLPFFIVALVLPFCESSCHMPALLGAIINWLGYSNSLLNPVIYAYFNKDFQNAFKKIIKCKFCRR
In words: inhibition of [3H] 8-hydroxy-2-(di-n-propylamino)tetraline binding at 5-HT1A receptor binding sites in rat hippocampal tissue. To be noted: for inhibition at 1 µM: read-out: Receptor Binding 5HT1A % Inhibition at 1 μM.

Test [1] has as its system NE (synaptosomal norepinephrine uptake). In words: inhibition of synaptosomal uptake of norepinephrine (3H-NE). In kind it is biochemical. To be noted: synaptosomal 3H-NE uptake; for IC50: read-out: Neuronal Uptake NE IC50.
Test [2] has as its system 5HT (synaptosomal serotonin uptake). In words: inhibition of synaptosomal uptake of serotonin (14C-5-HT). To be noted: synaptosomal 14C-5-HT uptake; for IC50: read-out: Neuronal Uptake 5HT IC50. In kind it is biochemical.
The next test concerns the target T2, dopamine D2 receptor (Rattus norvegicus, UniProt P61169).
T2 construct: D2 receptors found in homogenized limbic brain tissue; from tissue; host or cells: homogenized limbic brain tissue
As to the kind of experiment: inhibition of 3H-haloperidol binding at D2 receptors in homogenized limbic brain tissue.

Where [3] appears, read: at 1 μM, rat hippocampal tissue.

T2 sequence (P61169 whole entry): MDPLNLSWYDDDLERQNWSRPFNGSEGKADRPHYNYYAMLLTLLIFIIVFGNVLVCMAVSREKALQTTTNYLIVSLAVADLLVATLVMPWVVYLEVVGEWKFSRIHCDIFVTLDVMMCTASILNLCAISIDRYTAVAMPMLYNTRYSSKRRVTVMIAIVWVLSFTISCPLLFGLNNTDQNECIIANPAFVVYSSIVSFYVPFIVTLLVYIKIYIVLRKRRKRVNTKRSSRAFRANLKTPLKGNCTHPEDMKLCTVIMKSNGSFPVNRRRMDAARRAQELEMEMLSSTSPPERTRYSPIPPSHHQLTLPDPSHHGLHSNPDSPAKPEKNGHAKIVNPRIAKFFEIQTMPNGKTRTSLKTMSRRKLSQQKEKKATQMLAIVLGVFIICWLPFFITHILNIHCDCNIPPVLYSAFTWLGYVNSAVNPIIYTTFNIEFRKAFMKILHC
Text for 5-HT1A receptor: 8-hydroxy-2-(di-n-propylamino)tetraline binding at 5-HT binding sites in rat hippocamphal tissue, following the procedure of Hall et al., J. Neurochem., 44 1685 (1985).
Text for dopamine D2 receptor: The actual percentage reduction of ^3 H-haloperidol binding is reported infra and the larger the number, the greater the potential for dopamine D2 receptor binding and antipsychotic activity.

As for `O=C1CC2(CCCC2)CC(=O)N1CCCCN1CCN(c2ncccn2)CC1` [Buspirone, reference compound], at 5-HT1A receptor, the inhibition at 1 µM is 97%.

Take `COc1cccc(C(=CCN2CCN(Cc3ccccc3)CC2)C2(O)CCCCC2)c1` [Example 1, 1-[1-(3-methoxyphenyl)-3-[4-(phenylmethyl)-1-piperazinyl]-1-propenyl]cyclohexanol]: the IC50 in test [1] is 640 nM; in test [2], 1690 nM. The molecule also registered a Ki at 5-HT1A receptor (rat hippocampal tissue) of 3 nM. The same molecule gave an inhibition at 1 µM on dopamine D2 receptor of 80%.

In turn, `COc1ccc(C(=CCN2CCN(Cc3ccccc3)CC2)C2(O)CCCCC2)cc1` [Example 2, 1-[1-(4-methoxyphenyl)-3-[4-(phenylmethyl)-1-piperazinyl]-1-propenyl]cyclohexanol] came in with a Ki on 5-HT1A receptor (rat hippocampal tissue) of 4 nM. On dopamine D2 receptor, the inhibition at 1 µM was 66%.

As for `COc1cccc(C(=CCN2CCN(Cc3cccc(Cl)c3)CC2)C2(O)CCCCC2)c1` [Example 4], the “Neuronal Uptake NE % Inhibition at 10 μM” value in test [1] (at 10 μM) turned out to be 100%. Further, in test [2] (at 10 μM), the “Neuronal Uptake 5HT % Inhibition at 10 μM” value was found to be 100%. For the same molecule, the Ki is 0.7 nM at 5-HT1A receptor (rat hippocampal tissue) and 17 nM at dopamine D2 receptor.

For `COc1cccc(C(=CCN2CCN(Cc3ccc(Cl)cc3)CC2)C2(O)CCCCC2)c1` [Example 5, 1-[3-[4-[(4-chlorophenyl)methyl]-1-piperazinyl]-1-(3-methoxyphenyl)-1-propenyl]cyclohexanol], the inhibition at 1 µM was determined as 99% at 5-HT1A receptor (setting [3]) and 76% at dopamine D2 receptor.

Turning to `COc1cccc(C(=CCN2CCN(Cc3ccc(C(F)(F)F)cc3)CC2)C2(O)CCCCC2)c1` [Example 6, 1-[1-(3-methoxyphenyl)-3-[4-[[4-(trifluoromethyl)phenyl]methyl]-1-piperazinyl]-1-propenyl]cyclohexanol], the inhibition at 1 µM was 99% at 5-HT1A receptor (setting [3]) and 76% at dopamine D2 receptor.

On to `COc1cccc(C(=CCN2CCN(c3ncccn3)CC2)C2(O)CCCCC2)c1` [Example 7], for which the values for the IC50 in test [1] and in test [2] were 4820 nM and 2090 nM, respectively. Also, at 5-HT1A receptor (rat hippocampal tissue), the inhibition constant Ki came out at 49 nM. Besides, the inhibition at 1 µM on dopamine D2 receptor is 61%.

With `COc1cccc(C(=CCN2CCN(c3cncc(Cl)n3)CC2)C2(O)CCCCC2)c1` [Example 8, 1-[3-[4-(6-chloro-2-pyrazinyl)-1-piperazinyl]-1-(3-methoxyphenyl)-1-(3-methoxyphenyl)-1-propenyl]cyclohexanol], at 5-HT1A receptor (rat hippocampal tissue), the Ki is 138 nM.

Consider `COc1ccc(C(=CCCN2CCN(Cc3ccccc3)CC2)C2(O)CCCCC2)cc1` [Example 10, 1-[1-(4-methoxyphenyl)-4-[4-(phenylmethyl)-1-piperazinyl]-1-butenyl]cyclohexanol], for which the IC50 was found to be 190 nM in test [1] and 920 nM in test [2]. For the same molecule, the inhibition at 1 µM at 5-HT1A receptor (setting [3]) stood at 74%; on dopamine D2 receptor it was 53%.
